Results: patent US11479556B1, “Bifunctional compounds for degrading BTK via ubiquitin proteosome pathway” (NURIX THERAPEUTICS, INC., priority 2018, dated 2022)

The molecules below were run against T1, BTK (Homo sapiens, UniProt Q06187) (assay: Cellular BTK HTRF assay (BTK degradation) in TMD8 cells). Settings: four hours incubation, Total-BTK HTRF relative to DMSO-treated cells.
T1 construct: endogenous in cells; host or cells: TMD8 cells
Assay type: cell-based
Method: Example 66: BTK Degradation Assay
TMD8 cells were obtained from Tokyo Medical and Dental University and were grown in alpha-MEM (Fisher 12571063) supplemented with 10% heat-inactivated FBS (Corning Premium Fetal Bovine Serum from Fisher, MT35015CV).
Compounds of the present invention were added to 50,000 TMD8 cells in round-bottom 96 well plates with a final DMSO concentration of […] and were incubated at 37° C. 5% CO2 for four hours. BTK levels were determined using Cisbio Total-BTK HTRF ([…] Time-Resolved Fluorescence) kit (63ADK064PEG) according to manufacturer's protocol. Briefly, cells were incubated in 1× supplied lysis buffer for 30 minutes. In an opaque white low volume 96 well plate (Cisbio, 66PL96005), cell lysate was combined with two different specific BTK antibodies, one conjugated with Eu^3+-Cryptate FRET donor and one conjugated with d2 FRET acceptor. Assay controls include wells containing cell lysate with only the Eu^3+-Cryptate FRET donor antibody and wells containing both HTRF antibodies and lysis buffer without cells or control lysate provided by Cisbio. HTRF ratio was calculated as (acceptor signal at 665 nm/donor signal at 620 nm)×10^4. Background HTRF levels were determined from the control well containing the donor, but no acceptor, antibody. Background HTRF levels were subtracted from all samples. Readouts were reported as HTRF levels relative to HTRF levels of DMSO-treated cells. Four-parameter non-linear regressions were performed in GraphPad Prism 7.02 to obtain DC50 values. DC50 values are provided in Table 3, wherein A<5.0 nM, 5.0 nM≤B≤15 nM, and 15 nM<C.

T1 sequence (Q06187 whole entry): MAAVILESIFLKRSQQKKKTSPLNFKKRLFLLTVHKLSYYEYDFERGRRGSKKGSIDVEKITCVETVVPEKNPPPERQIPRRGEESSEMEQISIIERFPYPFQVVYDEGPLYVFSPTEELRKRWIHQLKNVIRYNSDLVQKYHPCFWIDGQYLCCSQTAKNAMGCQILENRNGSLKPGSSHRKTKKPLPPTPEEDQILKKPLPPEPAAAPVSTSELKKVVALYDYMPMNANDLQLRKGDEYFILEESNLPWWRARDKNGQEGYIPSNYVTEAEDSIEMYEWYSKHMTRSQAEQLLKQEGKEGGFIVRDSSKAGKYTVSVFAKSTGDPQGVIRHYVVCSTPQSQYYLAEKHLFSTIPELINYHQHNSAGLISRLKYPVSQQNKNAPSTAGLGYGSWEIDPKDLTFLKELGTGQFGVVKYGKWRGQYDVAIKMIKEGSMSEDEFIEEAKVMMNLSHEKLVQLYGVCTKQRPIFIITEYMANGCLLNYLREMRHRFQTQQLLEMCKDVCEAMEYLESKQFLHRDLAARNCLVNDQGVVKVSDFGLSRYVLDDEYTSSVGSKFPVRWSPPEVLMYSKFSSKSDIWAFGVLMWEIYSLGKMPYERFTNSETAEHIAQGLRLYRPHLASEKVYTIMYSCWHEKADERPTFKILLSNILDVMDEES

| DC50 [nM] | SMILES |
| --- | --- |
| 5 to 15 | Cn1c(-c2ccc(N3CCC(CN4CCC(c5ccc(Nc6nc(N7CCCC8(COC8)C7)cnc6C(N)=O)cc5)CC4)CC3)cc2)nn(C2CCC(=O)NC2=O)c1=O (centres unmarked) [Compound 178] |
| < 5 | CN1CCN([C@H]2CCCN(c3cnc(C(N)=O)c(Nc4ccc(N5CCCC6(CN(Cc7ccc8c(c7)C(=O)N(C7CCC(=O)NC7=O)C8=O)C6)C5)cc4)n3)C2)C1=O (some centres unmarked) [Compound 94] |
| < 5 | CN1CCN([C@@H]2CCCN(c3cnc(C(N)=O)c(Nc4ccc(C5CCN(C[C@H]6CCN(c7ccc8c(=O)n(C9CCC(=O)NC9=O)ccc8c7)C6)CC5)cc4)n3)C2)C1=O (some centres unmarked) [Compound 134] |
| 5 to 15 | NC(=O)c1ncc(N2CCCCC2)nc1Nc1ccc(C2CCN(CC3CCN(c4ccc(OC5CCC(=O)NC5=O)cn4)CC3)CC2)cc1 (centres unmarked) [Compound 164] |
| < 5 | Cn1cc(Nc2nc(N3CCC[C@@H](N4CC5(CN(CC6CCN(c7ccc8c(=O)n(C9CCC(=O)NC9=O)ccc8c7)CC6)C5)OC4=O)C3)cnc2C(N)=O)cn1 (some centres unmarked) [Compound 147] |
| < 5 | NC(=O)c1ncc(-c2nccs2)nc1Nc1ccc(C2CCN(C[C@@H]3CCN(c4ccc5c(c4)C(=O)N(C4CCC(=O)NC4=O)C5=O)C3)CC2)cc1 (some centres unmarked) [Compound 148] |
| > 15 | CN1CCN([C@H]2CCCN(c3cnc(C(N)=O)c(Nc4cnn(C5CCN(CCCc6cccc7c6CN(C6CCC(=O)NC6=O)C7=O)CC5)c4)n3)C2)C1=O (some centres unmarked) [Compound 84] |
| 5 to 15 | CN1CCN([C@@H]2CCCN(c3cnc(C(N)=O)c(Nc4ccc(C5(C)CCN(C(=O)CCOCCNc6cccc7c6C(=O)N(C6CCC(=O)NC6=O)C7=O)CC5)cc4)n3)C2)C1=O (some centres unmarked) [Compound 28] |
| > 15 | CN1CCN([C@@H]2CCCN(c3cnc(C(N)=O)c(Nc4ccc(OCCCNC(=O)CCCN5CCN(c6ccc7c(c6)C(=O)N(C6CCC(=O)NC6=O)C7=O)CC5)cc4)n3)C2)C1=O (some centres unmarked) [Compound 4] |
| > 15 | CN1CCN([C@H]2CCCN(c3cnc(C(N)=O)c(Nc4ccc(N5CC[C@@H]6CCN(c7ccc8c(c7)C(=O)N(N7CCC(=O)NC7=O)C8=O)C[C@H]6C5)cc4)n3)C2)C1=O [Compound 107] |
| < 5 | NC(=O)c1ncc(N2CCCC3(COC3)C2)nc1Nc1ccc(C2CCN(CC3CCN(c4ccc5c(=O)n(C6CCC(=O)NC6=O)ccc5c4)CC3)CC2)cc1 (centres unmarked) [Compound 177] |
| < 5 | CN1CCN([C@@H]2CCCN(c3cnc(C(N)=O)c(Nc4ccc(N5CCN(CCC6CCN(c7ccc8c(c7)C(=O)N(C7CCC(=O)NC7=O)C8=O)CC6)CC5)cc4)n3)C2)C1=O (some centres unmarked) [Compound 40] |
| 5 to 15 | CN1CCN([C@@H]2CCCN(c3cnc(C(N)=O)c(Nc4ccc(C5(C)CCN(CCCc6cccc7c6CN(C6CCC(=O)NC6=O)C7=O)CC5)cc4)n3)C2)C1=O (some centres unmarked) [Compound 16] |
| < 5 | CN1CCN([C@@H]2CCCN(c3cnc(C(N)=O)c(Nc4ccc(N5CCN(C[C@@H]6CCCN(c7ccc8c(c7)C(=O)N(C7CCC(=O)NC7=O)C8=O)C6)CC5)cc4)n3)C2)C1=O (some centres unmarked) [Compound 46] |
| < 5 | NC(=O)c1ncc(-n2cccn2)nc1Nc1ccc(C2CCN(C[C@H]3CCN(c4ccc5c(c4)C(=O)N(C4CCC(=O)NC4=O)C5=O)C3)CC2)cc1 (some centres unmarked) [Compound 125] |
| < 5 | CN1CCN([C@@H]2CCCN(c3cnc(C(N)=O)c(Nc4ccc(C5CCN(C[C@@H]6[C@H]7CN(c8ccc9c(c8)C(=O)N(C8CCC(=O)NC8=O)C9=O)C[C@@H]67)CC5)cc4)n3)C2)C1=O (some centres unmarked) [Compound 39] |
| 5 to 15 | CN1CCN([C@@H]2CCCN(c3cnc(C(N)=O)c(Nc4ccc(C5(C)CCN(C(=O)CCOCCCc6ccc7c(c6)C(=O)N(C6CCC(=O)NC6=O)C7=O)CC5)cc4)n3)C2)C1=O (some centres unmarked) [Compound 10] |
| > 15 | CN1CCN([C@@H]2CCCN(c3cnc(C(N)=O)c(Nc4ccc(OCCCNC(=O)[C@H]5C[C@@H](OCCCc6cccc7c6C(=O)N(C6CCC(=O)NC6=O)C7=O)C5)cc4)n3)C2)C1=O (some centres unmarked) [Compound 5] |
| < 5 | CN1CCN([C@H]2CCCN(c3cnc(C(N)=O)c(Nc4cnn(C5CCN(CC6CCN(c7ccc8c(c7)C(=O)N(C7CCC(=O)NC7=O)C8=O)CC6)CC5)c4)n3)C2)C1=O (some centres unmarked) [Compound 83] |
| > 15 | CN1CCN([C@@H]2CCCN(c3cnc(C(N)=O)c(Nc4cccc(NC(=O)[C@H]5C[C@@H](OCCCc6cccc7c6C(=O)N(C6CCC(=O)NC6=O)C7=O)C5)c4)n3)C2)C1=O (some centres unmarked) [Compound 63] |
| < 5 | NC(=O)c1ncc(N2CCC[C@@H](CO)C2)nc1Nc1ccc(C2CCN(CC3CCN(c4ccc5c(=O)n(C6CCC(=O)NC6=O)ccc5c4)CC3)CC2)cc1 (some centres unmarked) [Compound 172] |
| < 5 | Cn1cc(Nc2nc(N3CCC[C@@H](N4CCC5(CN(CC6CCN(c7ccc8c(c7)C(=O)N(C7CCC(=O)NC7=O)C8=O)CC6)C5)C4=O)C3)cnc2C(N)=O)cn1 (some centres unmarked) [Compound 137] |

| DC50 [nM] | SMILES |
| --- | --- |
| < 5 | CN1CCN([C@@H]2CCCN(c3cnc(C(N)=O)c(Nc4ccc(C5CCN(CC6CCN(c7cnn(C8CCC(=O)NC8=O)c(=O)c7)CC6)CC5)cc4)n3)C2)C1=O (some centres unmarked) [Compound 120] |
| < 5 | CN1CCN([C@@H]2CCCN(c3cnc(C(N)=O)c(Nc4ccc(C5CCN(C[C@H]6CCCN(c7ccc8c(c7)C(=O)N(C7CCC(=O)NC7=O)C8=O)C6)CC5)cc4)n3)C2)C1=O (some centres unmarked) [Compound 50] |
| < 5 | CN1CCN([C@@H]2CCCN(c3cnc(C(N)=O)c(Nc4ccc(N5CCN(C[C@@H]6CCN(c7ccc8c(c7)C(=O)N(C7CCC(=O)NC7=O)C8=O)C6)CC5)cc4)n3)C2)C1=O (some centres unmarked) [Compound 59] |
| 5 to 15 | CN1CCN([C@@H]2CCCN(c3cnc(C(N)=O)c(Nc4ccc(C5CCN(C(=O)CNc6cccc7c6C(=O)N(C6CCC(=O)NC6=O)C7=O)CC5)cc4)n3)C2)C1=O (some centres unmarked) [Compound 184] |
| < 5 | NC(=O)c1ncc(N2CCCCC2)nc1Nc1ccc(C2CCN(C[C@@H]3CCN(c4ccc5c(c4)C(=O)N(C4CCC(=O)NC4=O)C5=O)C3)CC2)cc1 (some centres unmarked) [Compound 149] |
| 5 to 15 | NC(=O)c1ncc(N2CCC(C(=O)O)CC2)nc1Nc1ccc(C2CCN(C[C@H]3CCN(c4ccc5c(c4)C(=O)N(C4CCC(=O)NC4=O)C5=O)C3)CC2)cc1 (some centres unmarked) [Compound 159] |
| < 5 | NC(=O)c1ncc(N2CCC[C@@H](CO)C2)nc1Nc1ccc(C2CCN(CC3CCN(c4ccc(NC5CCC(=O)NC5=O)cn4)CC3)CC2)cc1 (some centres unmarked) [Compound 170] |
| 5 to 15 | NC(=O)c1ncc(N2CCOCC2)nc1Nc1ccc(C2CCN(C[C@H]3CCN(c4ccc5c(c4)C(=O)N(C4CCC(=O)NC4=O)C5=O)C3)CC2)cc1 (some centres unmarked) [Compound 161] |
| < 5 | CN1CCN([C@H]2CCCN(c3cnc(C(N)=O)c(Nc4ccc(C5CCN(CC6CCN(c7ccc(C(=O)NC8CCC(=O)NC8=O)cc7)CC6)CC5)cc4)n3)C2)C1=O (some centres unmarked) [Compound 130] |
| < 5 | NC(=O)c1ncc(N2CCCCC2)nc1Nc1ccc(C2CCN(CC3CCN(c4ccc(C(=O)NC5CCC(=O)NC5=O)nc4)CC3)CC2)cc1 (centres unmarked) [Compound 182] |
| < 5 | NC(=O)c1ncc(N2CCCCC2)nc1Nc1ccc(C2CCN(CC3CCN(c4ccc5ccn(C6CCC(=O)NC6=O)c(=O)c5c4)CC3)CC2)cc1 (centres unmarked) [Compound 163] |
| < 5 | CN1CCN([C@@H]2CCCN(c3cnc(C(N)=O)c(Nc4ccc(C5CCN(CC6CN(c7ccc8c(c7)C(=O)N(C7CCC(=O)NC7=O)C8=O)C6)CC5)cc4)n3)C2)C1=O (some centres unmarked) [Compound 54] |
| < 5 | CN1CCN([C@@H]2CCCN(c3cnc(C(N)=O)c(Nc4ccc(N5CCN(C[C@H]6CCN(c7ccc8c(c7)C(=O)N(C7CCC(=O)NC7=O)C8=O)C6)CC5)nc4)n3)C2)C1=O (some centres unmarked) [Compound 113] |
| < 5 | CN1CCN([C@@H]2CCCN(c3cnc(C(N)=O)c(Nc4ccc(C5(C)CCN(C6CC(Nc7cccc8c7C(=O)N(C7CCC(=O)NC7=O)C8=O)C6)CC5)cc4)n3)C2)C1=O (some centres unmarked) [Compound 66] |
| < 5 | Cn1c(-c2ccc(N3CC(CN4CCC(c5ccc(Nc6nc(N7CCC[C@H](N8CCCC8=O)C7)cnc6C(N)=O)cc5)CC4)C3)cc2)nn(C2CCC(=O)NC2=O)c1=O (some centres unmarked) [Compound 135] |
| < 5 | NC(=O)c1ncc(N2CCC[C@@H](CO)C2)nc1Nc1ccc(C2CCN(CC3CCN(c4ccc(OC5CCC(=O)NC5=O)cn4)CC3)CC2)cc1 (some centres unmarked) [Compound 171] |
| < 5 | CN1CCN([C@@H]2CCCN(c3cnc(C(N)=O)c(Nc4ccc(C5CCN(CCC6CCN(c7ccc8c(c7)C(=O)N(C7CCC(=O)NC7=O)C8=O)CC6)CC5)cc4)n3)C2)C1=O (some centres unmarked) [Compound 41] |
| < 5 | NC(=O)c1ncc(N2CCC[C@@H](CO)C2)nc1Nc1ccc(C2CCN(C[C@@H]3CCN(c4ccc5c(c4)C(=O)N(C4CCC(=O)NC4=O)C5=O)C3)CC2)cc1 (some centres unmarked) [Compound 193] |
| < 5 | CN1CCN([C@@H]2CCCN(c3cnc(C(N)=O)c(Nc4ccc(C5CCN(CC6CN(c7ccc8c(=O)n(C9CCC(=O)NC9=O)ccc8c7)C6)CC5)cc4)n3)C2)C1=O (some centres unmarked) [Compound 116] |
| > 15 | CN1CCN([C@@H]2CCCN(c3cnc(C(N)=O)c(Nc4ccc(OCCCNC(=O)CCCc5cccc6c5CN(C5CCC(=O)NC5=O)C6=O)cc4)n3)C2)C1=O (some centres unmarked) [Compound 6] |
| 5 to 15 | CN1CCN([C@@H]2CCCN(c3cnc(C(N)=O)c(Nc4ccc(C5CCN(CC6CCN(c7ccc(CC8CCC(=O)NC8=O)cn7)CC6)CC5)cc4)n3)C2)C1=O (some centres unmarked) [Compound 190] |
| < 5 | NC(=O)c1ncc(N2CCC[C@@H](CO)C2)nc1Nc1ccc(C2CCN(C[C@H]3CCN(c4ccc5c(c4)C(=O)N(C4CCC(=O)NC4=O)C5=O)C3)CC2)cc1 (some centres unmarked) [Compound 174] |
